We go through four compounds from patent publication US9616058B2, “Potent selective LSD1 inhibitors and dual LSD1/MAO-B inhibitors for antiviral use” (Oryzon Genomics, S.A., priority 2010, dated 2017).

Common to all, as to assay type: biochemical
Assay [1] deals with T1, Human recombinant LSD1 protein (Homo sapiens, UniProt O60341).
T1 construct: purchased BPS Bioscience Inc
Put plainly: LSD1 demethylase inhibition assay (Amplex Red peroxide/peroxidase-coupled). Particulars: Ki (IC50) estimated at half of the maximum activity. The text has this:
The compounds of the invention can be tested for their ability to inhibit LSD1.
The conversion of the Amplex®.

Assay [2] deals with T2, Human recombinant monoamine oxidase MAO-A (Homo sapiens, UniProt P21397).
T2 construct: purchased Sigma Aldrich
T2 sequence (P21397 1-527): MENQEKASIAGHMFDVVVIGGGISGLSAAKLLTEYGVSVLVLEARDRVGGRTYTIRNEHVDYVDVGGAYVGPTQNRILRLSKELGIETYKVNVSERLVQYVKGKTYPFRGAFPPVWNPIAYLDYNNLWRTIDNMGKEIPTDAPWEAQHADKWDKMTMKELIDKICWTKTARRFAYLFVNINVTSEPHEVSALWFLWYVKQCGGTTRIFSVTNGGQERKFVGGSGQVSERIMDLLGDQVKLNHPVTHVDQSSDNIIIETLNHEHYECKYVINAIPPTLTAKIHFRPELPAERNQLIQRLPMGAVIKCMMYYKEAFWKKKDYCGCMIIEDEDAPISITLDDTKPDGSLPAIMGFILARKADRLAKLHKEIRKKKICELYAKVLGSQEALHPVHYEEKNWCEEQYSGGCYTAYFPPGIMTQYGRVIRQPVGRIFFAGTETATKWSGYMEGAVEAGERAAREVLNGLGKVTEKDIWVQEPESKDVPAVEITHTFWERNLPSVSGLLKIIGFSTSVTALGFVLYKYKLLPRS
Put plainly: Monoamine oxidase assay (kynuramine fluorescence), MAO-A. Particulars: Ki measured at Vmax/2. The protocol: (§1) MOAs catalyze the oxidative deamination of 1°, 2′ and 3° amines.
(§2) The Ki of each inhibitor was measure at Vmax/2.

Assay [3] deals with T3, Human recombinant monoamine oxidase MAO-B (Homo sapiens, UniProt P27338).
T3 construct: purchased Sigma Aldrich
T3 sequence (P27338 1-520): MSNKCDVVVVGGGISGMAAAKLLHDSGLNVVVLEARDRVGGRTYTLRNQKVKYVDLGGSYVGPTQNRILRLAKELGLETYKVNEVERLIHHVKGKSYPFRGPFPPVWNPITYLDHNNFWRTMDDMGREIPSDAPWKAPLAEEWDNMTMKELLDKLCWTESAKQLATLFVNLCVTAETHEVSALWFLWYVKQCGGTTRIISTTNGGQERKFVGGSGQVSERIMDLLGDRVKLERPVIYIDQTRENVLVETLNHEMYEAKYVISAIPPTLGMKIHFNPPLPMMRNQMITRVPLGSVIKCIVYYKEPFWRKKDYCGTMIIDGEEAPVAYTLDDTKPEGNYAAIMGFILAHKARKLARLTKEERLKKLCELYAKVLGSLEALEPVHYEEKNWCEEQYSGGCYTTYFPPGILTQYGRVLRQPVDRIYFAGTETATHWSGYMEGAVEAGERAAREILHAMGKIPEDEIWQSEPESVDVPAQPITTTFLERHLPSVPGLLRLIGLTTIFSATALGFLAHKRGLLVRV
Put plainly: Monoamine oxidase assay (kynuramine fluorescence), MAO-B. Particulars: Ki measured at Vmax/2. The protocol:
as §1, §2

pKi: −log10 of the molar value.

For `N[C@@H]1CCN(CCN[C@H]2CC2c2ccccc2)C1` (some centres unmarked) [1(A)], the pKi in assay [1] is over 6.00; in assay [2], under 4.40; in assay [3] it was under 4.40.

As for `c1ccc(C2C[C@@H]2NCCN2CCNCC2)cc1` (some centres unmarked) [1(B)], the pKi in assay [1] is over 6.00; in assay [2] it was under 4.52; in assay [3] it was under 4.52.

Take `NC(=O)CN[C@H]1CC1c1ccc(OCc2cc(F)cc(F)c2)cc1` (some centres unmarked) [2(B)]: the pKi in assay [2] was 4.52 to 4.70.

Take `c1ccc(C2C[C@@H]2NCCNC2CC2)cc1` (some centres unmarked) [Compound 2(A)]: the pKi in assay [2] is about 5.00.
